Eleven compounds from patent US6720346B2, “Thiazole benzamide derivatives and pharmaceutical compositions for inhibiting cell proliferation” (Agouron Pharmaceuticals, Inc., priority 2001, dated 2004) can be followed below.

As usually defined, the IC50 is the midpoint of a concentration-inhibition curve.

A value given as a limit tells only on which side of the number the result lay.

One experiment deals with T1, CDK2/cyclin A (Homo sapiens, UniProt P24941).
T1 construct: made in house; host or cells: CDK2: insect cells (baculovirus); cyclin A: E. coli
The experiment is described as follows: Inhibition of CDK2/cyclin A retinoblastoma kinase activity (Ki; % inhibition). The format is biochemical. As to conditions: for Ki: apparent Ki, CDK2/cyclin A, Rb substrate. The method, then: (§1) Cyclin-dependent kinase activity was measured by quantifying the enzyme-catalyzed, time-dependent incorporation of radioactive phosphate from [^32P]ATP or [^33P]ATP into a protein substrate. Unless noted otherwise, assays were performed in 96-well plates in a total volume of 50 μL, in the presence of 10 mM HEPES (N-[2-hydroxyethyl]piperazine-N′-[2-ethanesulfonic acid]) (pH 7.4), 10 mM MgCl2, 25 μM adenosine triphosphate (ATP), 1 mg/mL ovalbumin, 5 μg/mL leupeptin, 1 mM dithiothreitol, 10 mM β-glycerophosphate, 0.1 mM sodium vanadate, 1 mM sodium fluoride, 2.5 mM ethylene glycol-bis(β-aminoethyl ether)-N,N,N′N′-tetraacetic acid (EGTA), 2% (v/v) dimethylsulfoxide, and 0.03-0.4 μCi [^32/33P]ATP per reaction. Reactions were initiated with enzyme, incubated at 30° C., and terminated after 20 minutes by the addition of ethylenediaminetetraacetic acid (EDTA) to 250 mM. The phosphorylated substrate was then captured on a nitrocellulose or phosphocellulose membrane using a 96-well filtration manifold, and unincorporated radioactivity was removed by repeated washing with 0.85% phosphoric acid. Radioactivity was quantified by exposing the dried membranes to a phosphorimager.
(§2) Compounds from combinatorial libraries were screened from 96-well plates for % inhibition of CDK activity at 30 nM theoretical compound concentration. Inhibition was measured relative to control wells that contained all reaction components including 2% (v/v) DMSO but no compound, after subtraction of background radioactivity measured in the absence of enzyme. Apparent Ki values of discrete compounds were measured by assaying enzyme activity in the presence of different inhibitor compound concentrations and subtracting the background radioactivity measured in the absence of enzyme. The kinetic parameters (kcat, Km for ATP) were measured for each enzyme under the usual assay conditions by determining the dependence of initial rates on ATP concentration. Inhibition data were fit to an equation for competitive inhibition using Kaleidagraph (Synergy Software), or were fit to an equation for competitive tight-binding inhibition using the software KineTic (BioKin, Ltd.).
CDK2 was purified using published methodology (Rosenblatt et al., “Purification and Crystallization of Human Cyclin-dependent Kinase 2,” J. Mol. Biol., 230, 1993, pp. 1317-1319) from insect cells that had been infected with a baculovirus expression vector. […] A complex of CDK2 and proteolyzed cyclin A was prepared and purified by gel filtration. The substrate for this assay was the same Rb substrate fragment used for the CDK4 assays, and the methodology of the CDK2/delta cyclin A and the CDK4/delta cyclin D3 assays was essentially the same, except that CDK2 was present at 10 nM or 19 nM. The duration of the assay was 60 or 75 minutes, during which the time-dependence of product formation was linear and initial rate conditions were met.

For the next experiment, the target named is T2, human CDK4/cyclin D3 (Homo sapiens, UniProt P11802).
T2 construct: made in house; host or cells: insect cells co-infected with baculovirus vectors
The experiment in a line: Inhibition of CDK4/cyclin D retinoblastoma kinase activity (Ki; % inhibition). The format is biochemical. As to conditions: for Ki: apparent Ki, CDK4/cyclin D3, Rb substrate. As for the experimental part:
as §1, §2
A complex of human CDK4 and genetically truncated (1-264) cyclin D3 was purified using traditional biochemical chromatographic techniques from insect cells that had been co-infected with the corresponding baculovirus expression vectors (see e.g., Meijer and Kim, “Chemical Inhibitors of Cyclin-Dependent Kinases,” Methods in Enzymol., 283 (1997), pp. 113-128.). The enzyme complex (5 nM) was assayed with 0.3-0.5 μg of purified recombinant retinoblastoma protein fragment (Rb) as a substrate. The engineered Rb fragment (residues 386-928 of the native retinoblastoma protein; 62.3 kDa) contains the majority of the phosphorylation sites found in the native 106-kDa protein, as well as a tag of six histidine residues for ease of purification. Phosphorylated Rb substrate was captured by microfiltration on a nitrocellulose membrane and quantified using a phosphorimager as described above. For measurement of tight-binding inhibitors, the assay duration was extended to 60 minutes, during which the time-dependence of product formation was linear and initial rate conditions were met.

In a further experiment the test system is HCT-116 cell line. The experiment in a line: Inhibition of cell growth, MTT tetrazolium salt assay. The format is cell-based. The settings on record: for IC50: Homo sapiens, HCT-116, 120 h, MTT, three to five days. As for the experimental part:
Inhibition of cell growth was measured using the tetrazolium salt assay, which is based on the ability of viable cells to reduce 3-(4,5-dimethylthiazol-2-yl)-2,5-[2H]-diphenyltetrazolium bromide (MTT) to formazan (Mossman, Journal of Immunological Methods, 65, (1983), pp. 55-58). The water-insoluble purple formazan product was then detected spectrophotometrically. The HCT-116 cell line was used as a representative cancer cell line and grown in 96-well plates. Cells were plated in McCoy's 5A Medium at a volume of 135 μl/well. Plates were incubated for four hours before addition of inhibitor compounds. Different concentrations of inhibitor compounds were added in 0.5% (v/v) dimethylsulfoxide (15 μL/well), and cells were incubated at 37° C. (5% CO2) for three to five days. At the end of the incubation, MTT was added to a final concentration of 0.2 mg/mL, and cells were incubated for 4 hours more at 37° C. After centrifugation of the plates and removal of medium, the absorbance of the formazan (solubilized in dimethylsulfoxide) was measured at 540 nm. The concentration of inhibitor compound causing 50% (IC50) or 90% ([…]) inhibition of growth was determined from the linear portion of a semi-log plot of inhibitor concentration versus percent inhibition. All results were compared to control cells treated only with 0.5% (v/v) dimethylsulfoxide.
For orientation: Formazan colour is commonly taken as a measure of viable cells.

The mark [1] stands for this setting: HCT-116 cells, 0.25 μM compound.

T2 sequence (P11802 whole entry): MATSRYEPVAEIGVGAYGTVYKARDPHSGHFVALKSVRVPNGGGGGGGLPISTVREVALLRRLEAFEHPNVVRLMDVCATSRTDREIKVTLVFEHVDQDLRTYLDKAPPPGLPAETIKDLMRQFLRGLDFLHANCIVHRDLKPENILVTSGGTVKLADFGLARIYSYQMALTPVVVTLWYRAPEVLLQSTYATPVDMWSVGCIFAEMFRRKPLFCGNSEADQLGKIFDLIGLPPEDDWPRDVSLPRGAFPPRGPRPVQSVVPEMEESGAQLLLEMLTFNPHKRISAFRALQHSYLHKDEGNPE
T2 sequence (P30281 1-264 partner limits assumed): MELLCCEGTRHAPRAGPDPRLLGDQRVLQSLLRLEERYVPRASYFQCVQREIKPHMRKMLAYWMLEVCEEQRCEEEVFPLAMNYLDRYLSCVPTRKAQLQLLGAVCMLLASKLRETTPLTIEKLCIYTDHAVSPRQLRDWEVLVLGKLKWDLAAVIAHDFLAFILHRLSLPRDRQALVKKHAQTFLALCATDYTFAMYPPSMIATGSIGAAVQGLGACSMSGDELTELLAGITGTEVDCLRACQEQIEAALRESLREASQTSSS

Consider `CC(C)c1ccc(NC(=O)c2ccc(Nc3nc(N)c(C(=O)c4c(F)cccc4F)s3)cc2)cc1` [Example G69], for which the “CDK2 % Inhibition at 0.03 μM” value at CDK2/cyclin A (at 0.03 μM) is 7%. Moreover, the “CDK4 % Inhibition at 0.03 μM” value on human CDK4/cyclin D3 (at 0.03 μM) turned out to be 3%. Further, in the experiment on HCT-116 cell line (HCT-116, at 0.25 μM), the “HCT-116 % Inhibition at 0.25 μM” value is recorded as 70%.
`CC(C)OCCNC(=O)c1ccc(Nc2nc(N)c(C(=O)c3c(F)cccc3F)s2)cc1` [Example G168]: the “CDK2 % Inhibition at 0.03 μM” value at CDK2/cyclin A (at 0.03 μM) is on record as 4%. At human CDK4/cyclin D3 (at 0.03 μM), the “CDK4 % Inhibition at 0.03 μM” value amounted to 17%. Further, the “HCT-116 % Inhibition at 0.1 μM” value in the experiment on HCT-116 cell line (HCT-116, at 0.1 μM) amounted to 25%. Moreover, in the experiment on HCT-116 cell line (HCT-116, at 0.25 μM), the “HCT-116 % Inhibition at 0.25 μM” value came out at 52%.
Turning to `CN1CCC[C@@H]1CNC(=O)c1ccc(Nc2nc(N)c(C(=O)c3c(F)cccc3F)s2)cc1` [Example A34, 4-[4-Amino-5-(2,6-difluoro-benzoyl)-thiazol-2-ylamino]-N-(1-methyl-pyrrolidin-2R-ylmethyl)-benzamide], the results for the Ki at CDK2/cyclin A and on human CDK4/cyclin D3 were 99 nM and 10 nM, respectively. For the same compound, the IC50 in the experiment with HCT-116 cell line worked out at 140 nM.
On to `Nc1nc(Nc2ccc(C(=O)NC3CCCCC3)cc2)sc1C(=O)c1c(F)cccc1F` [Example G139], for which the “CDK2 % Inhibition at 0.03 μM” value at CDK2/cyclin A (at 0.03 μM) is recorded as 6%. Further, the “CDK4 % Inhibition at 0.03 μM” value on human CDK4/cyclin D3 (at 0.03 μM) is listed as 17%. In the experiment with HCT-116 cell line (HCT-116, at 0.1 μM), the “HCT-116 % Inhibition at 0.1 μM” value amounted to 0%. Moreover, the “HCT-116 % Inhibition at 0.25 μM” value in the experiment on HCT-116 cell line (HCT-116, at 0.25 μM) is 56%.
In the same order, the values of `Cc1cc(NC(=O)c2ccc(Nc3nc(N)c(C(=O)c4c(F)cccc4F)s3)cc2)ccc1C(C)C` [Example G107] are −5%, 12%, 5% and 59%.
With `Nc1nc(Nc2ccc(C(=O)Nc3ccc(O)cc3)cc2)sc1C(=O)c1c(F)cccc1F` [Example G74], the “CDK2 % Inhibition at 0.03 μM” value at CDK2/cyclin A (at 0.03 μM) turned out to be 23%. Moreover, on human CDK4/cyclin D3 (at 0.03 μM), the “CDK4 % Inhibition at 0.03 μM” value came to 18%. In addition, the “HCT-116 % Inhibition at 0.25 μM” value with HCT-116 cell line (HCT-116, at 0.25 μM) is listed as 78%.
Consider `CSCCC(CO)NC(=O)c1ccc(Nc2nc(N)c(C(=O)c3c(F)cccc3F)s2)cc1` (stereo not shown) [Example G386], for which the “CDK2 % Inhibition at 0.03 μM” value on CDK2/cyclin A (0.03 μM compound) is 19%. Further, the “CDK4 % Inhibition at 0.03 μM” value at human CDK4/cyclin D3 (0.03 μM compound) stood at 12%. The “HCT-116 % Inhibition at 0.1 μM” value with HCT-116 cell line (HCT-116 cells, 0.1 μM compound) is on record as 28%. The “HCT-116 % Inhibition at 0.25 μM” value in the experiment with HCT-116 cell line (setting [1]) is reported as 51%.
As for `CN(CCCNC(=O)c1ccc(Nc2nc(N)c(C(=O)c3c(F)cccc3F)s2)cc1)c1ccccc1` [Example G363], the “CDK2 % Inhibition at 0.03 μM” value on CDK2/cyclin A (0.03 μM compound) stood at 27%. In addition, the “CDK4 % Inhibition at 0.03 μM” value at human CDK4/cyclin D3 (0.03 μM compound) is 16%. In addition, the “HCT-116 % Inhibition at 0.1 μM” value with HCT-116 cell line (HCT-116 cells, 0.1 μM compound) was found to be 24%. Further, the “HCT-116 % Inhibition at 0.25 μM” value in the experiment with HCT-116 cell line (setting [1]) was 63%.
Regarding `C[C@@H](NC(=O)c1ccc(Nc2nc(N)c(C(=O)c3c(F)cccc3F)s2)cc1)C(=O)O` [Example A65], the figures for the Ki at CDK2/cyclin A and on human CDK4/cyclin D3 were 160 nM and 57 nM, respectively. Also, the IC50 in the experiment on HCT-116 cell line is more than 500 nM.
Consider `COCC(C)NC(=O)c1ccc(Nc2nc(N)c(C(=O)c3c(F)cccc3F)s2)cc1` (stereo not shown) [Example G103], for which, at CDK2/cyclin A (at 0.03 μM), the “CDK2 % Inhibition at 0.03 μM” value is given as −2%. In addition, the “CDK4 % Inhibition at 0.03 μM” value at human CDK4/cyclin D3 (at 0.03 μM) was determined as 5%. The “HCT-116 % Inhibition at 0.1 μM” value in the experiment with HCT-116 cell line (HCT-116, at 0.1 μM) is 21%. Also, the “HCT-116 % Inhibition at 0.25 μM” value with HCT-116 cell line (HCT-116, at 0.25 μM) is on record as 59%.
In the case of `COc1ccc(OC)c(CCNC(=O)c2ccc(Nc3nc(N)c(C(=O)c4c(F)cccc4F)s3)cc2)c1` [Example G319], at CDK2/cyclin A (0.03 μM compound), the “CDK2 % Inhibition at 0.03 μM” value is reported as −5%. Also, the “CDK4 % Inhibition at 0.03 μM” value at human CDK4/cyclin D3 (0.03 μM compound) is given as 14%. In the experiment with HCT-116 cell line (HCT-116 cells, 0.1 μM compound), the “HCT-116 % Inhibition at 0.1 μM” value is recorded as 17%. In addition, the “HCT-116 % Inhibition at 0.25 μM” value in the experiment with HCT-116 cell line (setting [1]) came out at 54%.
